In patent US12458630B2, “Combination therapy for cancer” (The Regents of the University of California, priority 2020, dated 2025):

Assays:
KC6141 mouse PDAC cells = experiment: Cell viability assay (CCK-8); assay type: cell-based; conditions: WT and IKKα KD 6141 cells on ECM, 0.5 mM glucose, 3 days; EIPA, IPI549 600 nM, MBQ-167 500 nM
Procedure: (§1) Extracellular Matrix (ECM) Preparation. Skin fibroblasts were seeded on 6/12/96-well plates. One day after plating, cells were switched into DMEM (with pyruvate) with 10% dialysed FBS supplemented with or without 500 μM ^3H-proline and 100 μM Vitamin C. Cells were cultured for 6 days with media renewal every 24 h. After six days, skin fibroblasts were removed by washing in 1 ml or 500 μl or 100 μl per well PBS with 0.5% (v/v) Triton X-100 and 20 mM NH4OH. ECM was washed five times with PBS before plating KC6141 cells. The following day, KC6141 cells were switched into the indicated medium for 24 or 72 hrs.
(§2) Cell viability assay. Cell viability was determined with Cell Counting Kit-8 assay (CCK-8 assay kit, Glpbio). Cells were plated in 96-well plates at a density of 3000 cells (MIA PaCa-2) or 1500 cells (KC6141) per well and incubated overnight prior to treatment. EIPA (10 μM), MRT68921 (600 nM) or erlotinib (2 μM, Sigma) were added to the wells for 72 and 96 hrs. Next, 10 μL of CCK-8 was added to each well. The optical density was read at 450 nm using a microplate reader (FilterMax F5, Molecular Devices, USA) at day 0, 1, 2, 3, and 4. For glutamine-deprivation assays, cells in 96-well plates were rinsed briefly in PBS and incubated in the 0.2 mM glutamine. Glutamine-free DMEM medium was supplemented with 0.2 mM glutamine in the presence of 10% dialysed FBS and 25 mM HEPES. For some conditions, the medium was supplemented with a final concentration of 2% BSA (Fraction V, fatty-acid-, nuclease and protease-free, Calbiochem). For all experiments, media were replaced every 24 hrs. Viable cell counts were obtained using CCK-8 assay described as above.
(§3) In some embodiments, cells were plated in 96-well plates coated with or without ECM at a density of 3000 cells (MIA PaCa-2, 1444, 1305, COLO 357/FG) or 1500 cells (KC6141) per well and incubated overnight prior to treatment. EIPA (10.5 μM), IPI549 (600 nM), MBQ-167 (500 nM), MRT68921 (600 nM) or erlotinib (2 μM, Sigma), ML385 (10 μM, Sigma), HCQ (10 μM or 80 μM) or their combinations were added to the wells for 24, 72 or 96 hrs. Next, 10 μL of CCK-8 was added to each well. The optical density was read at 450 nm using a microplate reader (FilterMax F5, Molecular Devices, USA) at day 0, 1, 2, 3, and 4. For glutamine-deprivation assays, cells in 96-well plates were rinsed briefly in PBS and incubated in the 0.2 mM glutamine. Glutamine-free DMEM medium was supplemented with 0.2 mM glutamine in the presence of 10% dialyzed FBS and 25 mM HEPES. For glucose-deprivation assays, cells in 96-well plates were rinsed briefly in PBS and incubated in the 0.5 mM glucose. Glucose-free DMEM medium was supplemented with 0.5 mM glucose in the presence of 10% dialyzed FBS and 25 mM HEPES. For some conditions, the medium was supplemented with a final concentration of 2% BSA (Fraction V, fatty-acid-, nuclease and protease-free, Calbiochem). For all experiments, media were replaced every 24 hrs. Viable cell counts were obtained using CCK-8 assay described as above.

KC6141 cells [1] = experiment: Luminescence ATP detection assay; assay type: cell-based, mouse; conditions: KC6141 cells on ECM, 0.5 mM glucose, 24 hrs; EIPA 10.5 μM, MBQ-167 500 nM, MRT68921 600 nM
Procedure: as §1
Luminescence ATP Detection Assay. Intracellular ATP level was determined with luminescence ATP detection assay system (PerkinElmer) according to manufacturer's protocol. Briefly, KC6141 cells were grown on 96-well plates coated with or without ECM in the presence of 100 μl 0.5 mM glucose medium with or without EIPA (10.5 μM), MBQ-167 (500 nM), MRT68921 (600 nM) or their combinations for 24 hrs. 50 μl mammalian cell lysis solution was added and shaken for 5 minutes. Next, 50 μl substrate solution was added and shaken for five minutes. Finally, plate was adapted in dark for 10 minutes and luminescence was measured.

KC6141 cells [2] = experiment: L-Amino acid assay; assay type: cell-based, mouse; conditions: KC6141 cells on ECM, 0.5 mM glucose, 24 hrs
Procedure: as §1
L-Amino Acid Assay. Total amount of free L-amino acids (except for glycine) were measured by L-Amino Acid Assay Kit (Colorimetric) (antibodies) according to manufacturer's protocol. Briefly, KC6141 cells were grown on 6-well plates coated with or without ECM and treated as above. The cells were resuspended at 10^6 cells/mL 1× Assay Buffer and were homogenized on ice and then centrifuged to remove debris. 50 μL of each L-Alanine standard or cell lysis was added into wells of a 96-well microtiter plate. Then 50 μL of Reaction Mix was added to each well. The well contents were mixed thoroughly and incubated for 90 minutes at 37° C. protected from light. The plate was read with a spectrophotometric microplate reader in the 540-570 nm range. The concentration of L-Amino Acids was calculated within samples by comparing the sample OD to the standard curve.

MIA PaCa-2 cells [3] = experiment: TMR-DEX macropinosome uptake assay; assay type: cell-based, human
Procedure: Cell imaging. Immunostaining was performed as described^44. Cells were cultured on coverslips and fixed in 4% PFA for 10 min at room temperature. After washing twice in PBS, cells were incubated in PBS containing 10% FBS to block nonspecific sites of antibody adsorption. The cells were then incubated with the appropriate primary antibodies (diluted 1:100) and secondary antibodies (diluted 1:500) in PBS containing 10% FBS with or without 0.1% saponin. For cell macropinosome visualization, 24 hrs after seeding, the cells were serum starved for 18 hrs. Macropinosomes were marked using a high-molecular-mass (70 KD) TMR-Dextran (Invitrogen)-uptake assay, wherein TMR-DEX was added to serum-free medium at a final concentration of 1 mg/ml for 30 min at 37° C. At the end of the incubation period, the cells were rinsed five times in cold PBS and immediately fixed in 4% PFA. For tissue macropinosome visualization^45, fresh pancreata were cut into pieces with an approximate 5-mm cuboidal shape. A tissue section was placed in a 24-well plate and injected 150 μL of 10 mg/ml TMR-DEX solution directly into the tissue piece. Another 250 μL of diluted TMR-DEX solution were added to the well to immerse the tissue section. The plate was incubated in the dark for 15 min at room temperature. Then the tissue section was rinsed twice in PBS before embedding in O.C.T. compound in a prelabeled cryomold. Specimens were frozen on dry ice and stored at −80° C. for further processing. Immunostaining was performed as described above. Images were captured using a TCS SPE Leica confocal microscope (Leica, Germany).
In some embodiments, Immunostaining was performed as described (Su et al., 2017). Cells were cultured on coverslips and fixed in 4% PFA for 10 min at room temperature or methanol for 10 min at −20° C. After washing twice in PBS, cells were incubated in PBS containing 10% FBS to block nonspecific sites of antibody adsorption. The cells were then incubated with the appropriate primary antibodies (diluted 1:100) and secondary antibodies (diluted 1:500) in PBS containing 10% FBS with or without 0.1% saponin. For cell macropinosome visualization, 24 hrs after seeding, the cells were serum starved for 18 hrs. Macropinosomes were marked using a high-molecular-mass (70 KDa) TMR-DEX (Invitrogen)-uptake assay, wherein TMR-DEX was added to serum-free medium at a final concentration of 1 mg/ml for 30 min at 37° C. At the end of the incubation period, the cells were rinsed five times in cold PBS and immediately fixed in 4% PFA. For tissue macropinosome visualization (Lee et al., 2019), fresh pancreata were cut into pieces with an approximate 5-mm cuboidal shape. Tissue fragments were placed in a 24-well plate and injected with 150 μL of 10 mg/ml TMR-DEX solution. Another 250 μL of diluted TMR-DEX solution were added to the well to immerse the tissue fragment. The plate was incubated in the dark for 15 min at room temperature. Then the tissue fragments were rinsed twice in PBS before embedding in O.C.T. compound in a prelabeled cryomold. Specimens were frozen on dry ice and stored at −80° C. for further processing. Immunostaining was performed as described above. Images were captured using a TCS SPE Leica confocal microscope (Leica, Germany).
Quantification and statistics. To quantify the number of LC3 puncta, a total of 30 cells were recorded and analyzed using the LAS X measurement program on the TCS SPE Leica. Macropinosomes were quantified by using the ‘Analyze Particles’ feature in ImageJ (National Institutes of Health). Macropinocytic uptake index was computed by determining the total macropinosome area in relation to the total cell area for each field and then by determining the average across all the fields (at least 6 fields). These measurements were done on randomly-selected fields of view. Two-tailed unpaired Student's t test was performed for statistical analysis using GraphPad Prism software. […]

MIA PaCa-2 cells [4] = experiment: LC3 puncta / LC3-LAMP1 immunofluorescence; assay type: cell-based, human; conditions: MIA PaCa-2 cells, 10, 20, 40, 80 μM HCQ
Procedure: Cell imaging. Immunostaining was performed as described^44. Cells were cultured on coverslips and fixed in 4% PFA for 10 min at room temperature. After washing twice in PBS, cells were incubated in PBS containing 10% FBS to block nonspecific sites of antibody adsorption. The cells were then incubated with the appropriate primary antibodies (diluted 1:100) and secondary antibodies (diluted 1:500) in PBS containing 10% FBS with or without 0.1% saponin. For cell macropinosome visualization, 24 hrs after seeding, the cells were serum starved for 18 hrs. Macropinosomes were marked using a high-molecular-mass (70 KD) TMR-Dextran (Invitrogen)-uptake assay, wherein TMR-DEX was added to serum-free medium at a final concentration of 1 mg/ml for 30 min at 37° C. At the end of the incubation period, the cells were rinsed five times in cold PBS and immediately fixed in 4% PFA. For tissue macropinosome visualization^45, fresh pancreata were cut into pieces with an approximate 5-mm cuboidal shape. […]
Quantification and statistics. To quantify the number of LC3 puncta, a total of 30 cells were recorded and analyzed using the LAS X measurement program on the TCS SPE Leica. Macropinosomes were quantified by using the ‘Analyze Particles’ feature in ImageJ (National Institutes of Health). […]

MIA PaCa-2 cells [5] = experiment: Immunoblot of p62 and LC3 (autophagic degradation); assay type: cell-based, human; conditions: MIA PaCa-2 cells, 10-40 μM HCQ
Procedure: Autophagy Induction. […] For starvation, cells were incubated in starvation medium (20 mM HEPES pH 7.4, 140 mM NaCl, 1 mM CaC2, 1 mM MgCl2, and 1% BSA) for 1.5 or 2 hrs. For glucose starvation, cells were washed three times with PBS and incubated in glucose-free DMEM containing 10% dialyzed FBS for 4 hrs. Immunoblot and immunoprecipitation. Cells were harvested and lysed in RIPA buffer (50 mM Tris-HCl, pH 7.4, 150 mM NaCl, 1% Triton X-100, 1% Na deoxycholate, 0.1% SDS, 1 mM EDTA) supplemented with complete protease inhibitor cocktail. Proteins were resolved on SDS-polyacrylamide gels, and then transferred to a polyvinylidene difluoride membrane. After blocking with 5% (w/v) fat free milk, the membrane was stained with the corresponding primary antibodies followed by incubation with the appropriate secondary HRP-conjugated antibodies, and development with ECL. Immunoreactive bands were detected by automatic X-ray film processor or KwikQuant Imager.

MIA PaCa-2 cells [6] = experiment: Cell viability assay (CCK-8); assay type: cell-based, human
Procedure: as §2, §3

SMILES	cell viability enhanced by extracellular matrix (ECM) (KC6141 mouse PDAC cells)	cellular ATP (KC6141 cells [1])	amino acid content (KC6141 cells [2])	disruption of MP (MIA PaCa-2 cells [3]; 10 μM HCQ, inferred from lack of synergy with MRT68921)	degradation of MP (DQ-BSA in TMR-DEX macropinosomes) (MIA PaCa-2 cells [3]; MIA PaCa-2 cells, 10, 20, 40, 80 μM HCQ)	MP (TMR-DEX and DQ-BSA co-localization, MP-related protein expression) (MIA PaCa-2 cells [3]; MIA PaCa-2 cells, 10-40 μM HCQ)	MP inhibition (MIA PaCa-2 cells [3]; MIA PaCa-2 cells, HCQ 10-80 μM)	LC3-LAMP1 colocalization (MIA PaCa-2 cells [4])	autophagic degradation (LC3-II, p62, lysosomal LC3 retention) (MIA PaCa-2 cells [5])	synergy in growth inhibition with EIPA or ML385 (MIA PaCa-2 cells [6]; HCQ 10 μM combined with EIPA or ML385)	synergy in growth inhibition with MRT68921 (MIA PaCa-2 cells [6]; HCQ 10 μM combined with MRT68921)	cell growth (MIA PaCa-2 cells [6]; WT and IKKα^Δ MIA PaCa-2 cells, 80 μM HCQ, 3 days)	cell viability (total viable cells relative to vehicle) (MIA PaCa-2 cells [6]; WT and IKKα^Δ MIA PaCa-2 cells, 10 or 80 μM HCQ, 3 days)
CCn1c2ccccc2c2cc(-n3nncc3-c3ccccc3)ccc21 (racemic) [MBQ-167]	suppressed	reduced	reduced										
CCN(CCO)CCCC(C)Nc1ccnc2cc(Cl)ccc12 (stereo not shown) [HCQ, hydroxychloroquine]				barely disrupted MP	induced the degradation of MP at 10 μM, 20 μM, 40 μM, but not at 80 μM	stimulated MP	inhibited MP only at 80 μM	enhanced LC3-LAMP1 colocalization in a concentration-dependent manner	inhibited autophagic degradation	synergized	did not synergize	inhibited cell growth	suppression of cell viability
